ChEMBL document CHEMBL6083215, “Structure elucidation, absolute configuration, and biological evaluation of cyclic peroxides from the sponge Plakinastrella sp” (2024)

How the values were obtained:
Assay type in all cases: functional
BT-549 = test: Growth inhibition of human BT-549 cells
Hs-578T = test: Growth inhibition of human HS 578T cells
LOX IMVI = test: Growth inhibition of human LOX IMVI cells
UO-31 = test: Growth inhibition of human UO-31 cells
HL-60(TB) = test: Growth inhibition of human HL-60(TB) cells
MCF7 = test: Growth inhibition of human MCF7 cells
MDA-MB-231 = test: Growth inhibition of human MDA-MB-231 cells
MDA-MB-468 = test: Growth inhibition of human MDA-MB-468 cells
T47D = test: Growth inhibition of human T47D cells
SF-268 = test: Growth inhibition of human SF-268 cells
SF-295 = test: Growth inhibition of human SF-295 cells
SF-539 = test: Growth inhibition of human SF-539 cells
SNB-19 = test: Growth inhibition of human SNB-19 cells
SNB-75 = test: Growth inhibition of human SNB-75 cells
U-251 = test: Growth inhibition of human U-251 cells
COLO 205 = test: Growth inhibition of human COLO 205 cells
HCC 2998 = test: Growth inhibition of human HCC 2998 cells
HCT-116 = test: Growth inhibition of human HCT-116 cells
HCT-15 = test: Growth inhibition of human HCT-15 cells
HT-29 = test: Growth inhibition of human HT-29 cells
KM12 = test: Growth inhibition of human KM12 cells
SW-620 = test: Growth inhibition of human SW620 cells
786-0 = test: Growth inhibition of human 786-0 cells
A498 = test: Growth inhibition of human A498 cells
ACHN = test: Growth inhibition of human ACHN cells
CAKI-1 = test: Growth inhibition of human CAKI-1 cells
RXF 393 = test: Growth inhibition of human RXF 393 cells
SN12C = test: Growth inhibition of human SN12C cells
TK-10 = test: Growth inhibition of human TK-10 cells
CCRF-CEM = test: Growth inhibition of human CCRF-CEM cells
K562 = test: Growth inhibition of human K562 cells
MOLT-4 = test: Growth inhibition of human MOLT-4 cells
RPMI-8226 = test: Growth inhibition of human RPMI-8226 cells
SR = test: Growth inhibition of human SR cells
A549 = test: Growth inhibition of human A549 cells
EKVX = test: Growth inhibition of human EKVX cells
HOP-62 = test: Growth inhibition of human HOP-62 cells
HOP-92 = test: Growth inhibition of human HOP-92 cells
NCI-H226 = test: Growth inhibition of human NCI-H226 cells
NCI-H23 = test: Growth inhibition of human NCI-H23 cells
NCI-H322M = test: Growth inhibition of human NCI-H322M cells
NCI-H460 = test: Growth inhibition of human NCI-H460 cells
NCI-H522 = test: Growth inhibition of human NCI-H522 cells
M14 = test: Growth inhibition of human M14 cells
Malme-3M = test: Growth inhibition of human Malme-3M cells
MDA-MB-435 = test: Growth inhibition of human MDA-MB-435 cells
SK-MEL-2 = test: Growth inhibition of human SK-MEL-2 cells
SK-MEL-28 = test: Growth inhibition of human SK-MEL-28 cells
SK-MEL-5 = test: Growth inhibition of human SK-MEL-5 cells
UACC-257 = test: Growth inhibition of human UACC-257 cells
UACC-62 = test: Growth inhibition of human UACC-62 cells
IGROV-1 = test: Growth inhibition of human IGROV-1 cells
OVCAR-3 = test: Growth inhibition of human OVCAR-3 cells
OVCAR-4 = test: Growth inhibition of human OVCAR-4 cells
OVCAR-5 = test: Growth inhibition of human OVCAR-5 cells
OVCAR-8 = test: Growth inhibition of human OVCAR-8 cells
SK-OV-3 = test: Growth inhibition of human SK-OV-3 cells
NCI/ADR-RES = test: Growth inhibition of human NCI-ADR-RES cells
DU-145 = test: Growth inhibition of human DU-145 cells
PC-3 = test: Growth inhibition of human PC-3 cells

Measured: GI50

CCCCCCCCC/C=C(/C)CC(C)(O)CC(C)C(O)CC(=O)OC (configuration not stated)
> 100 µM: all assays above

CCCCCCCC/C=C(/C)C[C@]1(C)C[C@H](C)[C@@H](CC(=O)O)OO1
0.01 µM: LOX IMVI
0.09 µM: HL-60(TB)
0.06 µM: UO-31
0.6 µM: all other assays above

CCCCCCCCC/C=C(/C)C[C@]1(C)C[C@H](C)[C@@H](CC(=O)O)OO1
0.22 µM: HL-60(TB)
0.11 µM: LOX IMVI
0.19 µM: UO-31
0.98 µM: all other assays above

COc1cccc2c1C(=O)c1c(O)c3c(c(O)c1C2=O)C[C@@](O)(C(=O)CO)C[C@@H]3O[C@H]1C[C@H](N)[C@H](O)[C@H](C)O1 [DOXORUBICIN]
not listed: LOX IMVI | UO-31 | HL-60(TB)
0.12 µM: all other assays above
